Data from patent publication US20170121646A1, “Improved Stabilization of Non-Protease Enzyme” (Novozymes A/S, priority 2014, published 2017).

Tests used:
Assay type in all cases: biochemical
Savinase [1] = molecular target: T1, Savinase (Lederbergia lenta, UniProt P29600); experiment: Storage stability in Detergent M, residual protease activity after 1 week at 40° C.; settings: for Residual activity at dose 1 / Residual activity at dose 2 / Inhibitor dose 1: 1 week 40° C. vs −18° C. reference; for Inhibitor dose 1: dose 1 = concentration C found by interpolation; for ((residual activity at dose 2) − (residual activity at dose 1))/((residual activity at dose 1) − (residual activity at no inhibitor)): criterion that defines dose 1; for Inhibitor dose 2: dose 2 = 2×dose 1
T1 sequence (P29600 1-269): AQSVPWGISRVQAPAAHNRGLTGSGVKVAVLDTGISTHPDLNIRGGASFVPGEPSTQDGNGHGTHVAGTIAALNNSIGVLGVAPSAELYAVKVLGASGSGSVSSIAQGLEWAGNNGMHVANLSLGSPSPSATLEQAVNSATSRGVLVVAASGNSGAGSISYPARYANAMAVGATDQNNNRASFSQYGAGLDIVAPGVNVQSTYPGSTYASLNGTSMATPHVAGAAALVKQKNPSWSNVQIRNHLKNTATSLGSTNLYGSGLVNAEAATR
Source text: An inhibitor concentration C is defined, so that when the inhibitor concentration is doubled from a concentration of C to a concentration of 2C (i.e., 2C=2×C), the residual protease activity increases (“residual protease activity at 2C”−“residual protease activity at C”) by 25% of the residual protease activity increase from no inhibitor to C (“residual protease activity at C”−“residual activity at no inhibitor”). “No inhibitor” means that the concentration of inhibitor is zero.
The test system to determine “dose 1” (C) and “dose 2” (2C) is described in Example 1. A model detergent system is used (detergent A) and protease, lipase, and different concentrations of protease inhibitor are added (detergent M). Residual protease activity is determined by comparing activity after storage for 1 week at 40° C. with 1 week at −18° C. The data are used to prepare a dose response curve which is used to identify the inhibitor concentration C.
Various peptide aldehydes were produced by a custom peptide synthesis company, all with a purity>80%. The peptide aldehydes were dissolved in DMSO to a concentration of 10 mg/mL before use.
Further the following detergents with protease inhibitors were prepared. The detergents were placed in closed glasses at 40° C. Residual activity of protease was measured (by comparison to a reference stored at −18° C.) after 1 week, using standard enzyme analytical methods (protease measured by hydrolysis of N,N-dimethylcasein at 40° C., pH 8.3). The inhibitor levels tested relative to protease were in the range 0.5-500 molar ratio (inhibitor:protease). The data points were connected and the inhibitor dose 1 and dose 2 were determined by interpolation so that ((residual protease activity at dose 2)−(residual protease activity at dose 1))/((residual protease activity at dose 1)−(residual protease activity at no inhibitor))=0.25; and dose 2=2×dose 1.

Lipase (Lipex 100L) [2] = experiment: Storage stability in Detergent C with Savinase, residual lipase activity after 4 weeks at 30° C.; settings: increase from dose 1 to dose 2
Experimental: (§1) Further the following detergents with protease inhibitors were prepared. The detergents were placed in closed glasses at 30° C. Residual activity of lipase and protease was measured (by comparison to a reference stored at −18° C.) after 4 weeks, using standard enzyme analytical methods (protease measured by hydrolysis of N,N-dimethylcasein at 40° C., pH 8.3 and lipase measured by hydrolysis of p-nitrophenyl valerate at 40° C., pH 7.7). Z-GA-NHCH(CH2C6H4OH)CH(OH)SO3Na was added in a concentration of 8.1 mg/L (dose 1) and 16.1 mg/L (dose 2). 4-FPBA was added in a concentration of 80 mg/L (dose 1) and 160 mg/L (dose 2).

Savinase [3] = molecular target: T1, Savinase; experiment: Storage stability in Detergent C, residual protease activity after 4 weeks at 30° C.; settings: Detergent C with Savinase; for %-points per dose (residual protease activity): increase from dose 1 to dose 2
Experimental: as §1

Liquanase = experiment: as above; settings: Detergent C with Liquanase; increase from dose 1 to dose 2
Experimental: as §1

Lipase (Lipex 100L) [4] = experiment: Storage stability in Detergent C with Liquanase, residual lipase activity after 4 weeks at 30° C.; settings: increase from dose 1 to dose 2
Experimental: as §1
Target sequence in this assay (O59952 23-291 T253R/N255R): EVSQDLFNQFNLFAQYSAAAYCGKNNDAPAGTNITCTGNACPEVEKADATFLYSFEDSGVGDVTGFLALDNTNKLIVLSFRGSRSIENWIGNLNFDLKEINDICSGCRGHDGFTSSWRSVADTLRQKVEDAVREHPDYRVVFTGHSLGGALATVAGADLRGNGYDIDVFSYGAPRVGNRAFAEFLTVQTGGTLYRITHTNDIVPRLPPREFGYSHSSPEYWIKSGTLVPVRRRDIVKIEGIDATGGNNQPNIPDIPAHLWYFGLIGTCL

Protease (Savinase 16L) = molecular target: T2, Protease (Savinase 16L) (Lederbergia lenta, UniProt P29600); experiment: Storage stability in Detergent B, residual protease activity after 4 weeks at 30° C.; settings: increase from dose 1 (12.9 mg/L) to dose 2 (26.0 mg/L)
T2 sequence (P29600 1-269): T1 sequence (P29600 1-269)
Experimental: as §1, with “12.9” for “8.1”, “26.0” for “16.1”, “2).” for “2). 4-FPBA was added in a concentration of 80 mg/L (dose 1) and 160 mg/L (dose 2).”

Lipase (Lipex 100L) [5] = experiment: Storage stability in Detergent B (with Savinase), residual lipase activity after 4 weeks at 30° C.; settings: increase from dose 1 (12.9 mg/L) to dose 2 (26.0 mg/L)
Experimental: as §1, with “12.9” for “8.1”, “26.0” for “16.1”, “2).” for “2). 4-FPBA was added in a concentration of 80 mg/L (dose 1) and 160 mg/L (dose 2).”
Target sequence in this assay (O59952 23-291 T253R/N255R): as above

Compound	Residual activity at dose 1 (Savinase [1]) [%]	Residual activity at dose 2 (Savinase [1]) [%]	Inhibitor dose 1 (Savinase [1]) [mg/mL]	((residual activity at dose 2) − (residual activity at dose 1))/((residual activity at dose 1) − (residual activity at no inhibitor)) (Savinase [1]) [%]	Inhibitor dose 2 (Savinase [1]) [mg/mL]	%-points per dose (residual lipase activity) (Lipase (Lipex 100L) [2]) [%]	remaining activity at 80 µg/mL (Savinase [3]; 4 weeks 30° C. vs −18° C. reference, dose 1: Z-GA-NHCH(CH2C6H4OH)CH(OH)SO3Na 8.1 mg/L, 4-FPBA 80 mg/L, read-out: Inhibitor dose 1 (residual protease activity)) [%]	remaining activity at 160 µg/mL (Savinase [3]; 4 weeks 30° C. vs −18° C. reference, dose 2: Z-GA-NHCH(CH2C6H4OH)CH(OH)SO3Na 16.1 mg/L, 4-FPBA 160 mg/L, read-out: Inhibitor dose 2 (residual protease activity)) [%]	%-points per dose (residual protease activity) (Savinase [3]) [%]	%-points per dose (residual protease activity) (Liquanase) [%]	%-points per dose (residual lipase activity) (Lipase (Lipex 100L) [4]) [%]	%-points per dose (residual protease activity) (Protease (Savinase 16L)) [%]	%-points per dose (residual lipase activity) (Lipase (Lipex 100L) [5]) [%]
Cbz-Gly-Ala-Phe-H [Z-GAF-H]	75	90	18.7	25	37.5								
O=Cc1ccc(B(O)O)cc1 [4-FPBA, 4-formyl-phenyl-boronic acid]	63	75	91	25	182	16	98	98	0				
Z-GA-NHCH(CH2C6H4OH)CH(OH)SO3Na			8.1	25	16.1	21			9	0	25	10	30
Cbz-Gly-Ala-Leu-H [Z-GAL-H]	50	60	5.7	25	11.5								
